Test results from patent US20080306064A1, “Benzimidazole Derivatives” (priority 2005, published 2008).

These molecules were tested against T1, Human recombinant CXCR2 receptor (Homo sapiens, UniProt P25025) (assay: Receptor Binding Assay ([125I] IL-8, Ki) or [35S]-GTPγS Binding Assay (Kb) for human CXCR2 receptor). Conditions: CHO-K1 membranes expressing human CXCR2; Ki from Receptor Binding Assay, Kb from [35S]-GTPγS Binding Assay; table does not say which applies per value; compounds are trifluoroacetic acid salts.
T1 construct: Biosignal Packard Inc. (Kb, GTPγS assay); host or cells: CHO-K1
T1 sequence (P25025 1-360): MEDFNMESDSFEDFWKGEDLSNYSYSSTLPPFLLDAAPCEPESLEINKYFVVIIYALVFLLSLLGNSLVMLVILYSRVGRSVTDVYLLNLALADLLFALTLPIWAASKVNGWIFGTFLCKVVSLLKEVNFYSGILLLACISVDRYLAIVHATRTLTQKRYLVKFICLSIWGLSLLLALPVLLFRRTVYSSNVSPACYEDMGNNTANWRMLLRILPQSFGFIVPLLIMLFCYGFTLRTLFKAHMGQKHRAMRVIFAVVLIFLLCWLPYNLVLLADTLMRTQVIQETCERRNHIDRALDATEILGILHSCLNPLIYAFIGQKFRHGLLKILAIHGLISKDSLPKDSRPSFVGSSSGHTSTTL
Protocol: [^125I] IL-8 (human recombinant) was obtained from Amersham Pharmacia Biotech., with specific activity 2000 Ci/mmol. All other chemicals were of analytical grade. Human recombinant CXCR2 receptor expressed in Chinese hamster ovary cells (CHO-K1) was purchased from Euroscreen. The Chinese hamster ovary membranes were prepared according to protocol supplied by Euroscreen. Membrane protein concentration was determined using a Bio-Rad protein assay. Assays were performed in a 96-well micro plate format according the method described in White, et al., J Biol Chem., 1998, 273, 10095). Each reaction mixture contained 0.05 mg/ml CXCR2 membrane protein in 20 mM Bis-Tris-propane, pH 8.0, containing 1.2 mM MgSO4, 0.1 mM EDTA, 25 mM NaCl and 0.03% CHAPS. In addition, compound of interest was added which had been pre-dissolved in dimethylsulphoxide (DMSO) so as to reach a final concentration of between 10 μM and 0.0005 μM (final concentration of DMSO 2% (v/v)). Binding was initiated by addition of 0.02 nM ^125I-IL-8. After 2 hours at room temperature the plate was harvested using a Brandell™ 96-well harvester onto glass fibre filter plate (GF/c) blocked with 1% polyethyleneimine+0.5% BSA and washed 3 times with 25 mM NaCl, 10 mM TrisHCl, 1 mM MgSO4, 0.5 mM EDTA, 0.03% CHAPS, pH 7.4. The filter was dried at 50° C. overnight. Backseal was then applied to the plate and 50 μl of liquid scintillation fluid added. The counts were then measured on the Packard Topcount™ scintillation counter.
[^35S]-GTPγS Binding Assay for Human CXCR2 Receptor Using SPA Technology
[^35S]-GTPγS (with specific activity 1082 Ci/mmol) and wheat germ agglutinin poly vinyl toluene scintillation proximity beads were purchased from Amersham Pharmacia Biotech. The Chinese hamster ovary cell (CHO-K1) membranes expressing human CXCR2 receptors were purchased from Biosignal Packard Inc. All other chemicals were of analytical grade. White non-binding surface 96 well Optiplate™ microplates were obtained from Packard. Recombinant human IL-8 was synthesised, cloned and expressed in Escherichia coli as described previously (Lindley I, et al., Proc. Natl. Acad. Sci., 1988, 85(23):9199).
The assay was performed in duplicate in 96 well Optiplate™ microplate in a final volume of 250 μl per well. Compounds were diluted in DMSO (0.5% final concentration) and incubated in 20 mM HEPES buffer pH 7.4 containing 10 mM MgCl2, 100 mM NaCl, 1 mM EDTA plus 100 nM IL-8, 50 VM GDP and 500 pM [^35S]GTPγS per well. SPA beads (1 mg/well final concentration) were pre-mixed with the membranes ([…] final concentration) in assay buffer: 20 mM HEPES buffer pH 7.4 containing 10 mM MgCl2, 100 mM NaCl, 1 mM EDTA. The bead membrane mixture was then added to each well, plates were sealed and incubated at room temperature for 60 minutes. After which time the plate was centrifuged and immediately read on Packard TopCount™ scintillation counter, program [^35S dpm] for 1 min/well. Data was expressed as the % response to 100 nM IL-8 minus basal.
Ki data and Kb data are determined in the aforementioned Receptor Binding and [^35S]-GTPγS Binding Assays respectively.
In the case of O=C(O)c1cc(F)cc2nc(Nc3cccc(Cl)c3Cl)[nH]c12 [Example 1, 2-(2,3-Dichloro-phenylamino)-6-fluoro-3H-benzoimidazole-4-carboxylic acid], the Ki is reported as 200 nM.
Cc1c(F)cccc1Nc1nc2cccc(C(=O)O)c2[nH]1 [Example 3] was tested, and the Ki was 800 nM.
For O=C(O)c1cccc2nc(Nc3ccccc3-c3ccccc3)[nH]c12 [Example 5], the Ki was 1200 nM.
O=C(O)c1cc(-c2ccoc2)cc2nc(Nc3cccc(Cl)c3Cl)[nH]c12 [Example 10] showed a Ki of 1500 nM.
Cn1ccc(-c2cc(C(=O)O)c3[nH]c(Nc4cccc(Cl)c4Cl)nc3c2)n1 [Example 12] showed a Ki of 1800 nM.
